# From patent US5863901A, “Use of bradykinin antagonists for the production of pharmaceuticals for the treatment of chronic fibrogenetic liver disorders and acute liver disorders” (Hoechst Aktiengesellschaft, priority 1996, dated 1999)
# System: rats with carbon tetrachloride-induced hepatic fibrosis
# Experiment: Saluresis and diuresis test: urine and electrolyte excretion in rats with carbon tetrachloride-induced hepatic fibrosis
# Format: in vivo, Wistar rats
# Conditions: for Chloride excretion / Potassium excretion / Sodium excretion / Urine volume: 0.3 mg/kg s.c. at 0 and 6 h, mean value, n = 10, CCl4 fibrosis rats
# Procedure: Wistar rats were used (breeder Hoechst AG, Kastengrund) with an initial body weight of 120-150 g.
# Hepatic fibrosis was induced as described by Bickel et al., J. Hepatol., 13 (Suppl. 3) (1991) 26-33. The animals received carbon tetrachloride (CCl4) twice-weekly in a dose of 1 ml/kg orally for at least 6 weeks. The fibrosis of the liver was verified by means of the collagen content of the liver and liver-relevant serum parameters (bilirubin, ALAT, bile acids).
# In the course of the fibrogenesis, the animals were kept under standard conditions as follows: day/night rhythm (light phase from 6.30 to 18.30), room temperature 22±2° C. and relative atmospheric humidity 60±10%. The animals received standardized rat feed (Altromin® 1321) and water ad libitum.
# At the time of the diuresis test, the animals had reached weights of between 200 and 320 g. Food had already been withdrawn from the animals 16 h before the test and withheld during the entire test. The animals were additionally permitted free access to water up to the actual start of the test. For the duration of the diuresis test, the animals were kept in special diuresis cages. Controlled diuresis was induced with an oral dose of 20 ml of water per kg of body weight at time 0 h. The excretion of electrolytes and urine volumes were determined separately for each animal in the collection periods from […] and 6-24 h. Five days later, the test was carried out again on the same animals with administration of bradykinin antagonists. Animals received 0.3 mg/kg each of HOE 140 s.c. at time 0 and 6 h, dissolved in 5 ml of saline solution per kg of body weight.
# Sodium and potassium were determined by flame photometry (Eppendorf flame photometer, Hamburg). Chloride was measured argentometrically by means of potentiometric end-point determination (Eppendorf chloride meter, Hamburg). The analytical results were used to calculate the urine excretion (ml/kg of body weight) and electrolyte excretion (mmol/kg of body weight).
# The results are indicated as arithmetic means and standard deviation (SD). Statistical checking was carried out by the T test or, in the case of deviation from the normal distribution, by the nonparametric Mann-Whitney test.
structure (smiles),measurement,setting,value
"NC(N)=NCCC[C@@H](N)C(=O)N[C@@H](CCCN=C(N)N)C(=O)N1CCC[C@H]1C(=O)N1C[C@H](O)C[C@H]1C(=O)NCC(=O)N[C@@H](Cc1cccs1)C(=O)N[C@@H](CO)C(=O)N1Cc2ccccc2C[C@@H]1C(=O)N1[C@H](C(=O)N[C@@H](CCCN=C(N)N)C(=O)O)C[C@@H]2CCCC[C@@H]21 [HOE 140, H-D-Arg-Arg-Pro-Hyp-Gly-Thi-Ser-D-Tic-Oic-Arg-OH]",Chloride excretion,collection period 1-5 h,0.35 mmol/kg
same,Potassium excretion,collection period 1-5 h,0.51 mmol/kg
same,Sodium excretion,collection period 1-5 h,0.48 mmol/kg
same,Urine volume,collection period 1-5 h,26.59 mL/kg
same,Chloride excretion,collection period 6-24 h,3.27 mmol/kg
same,Potassium excretion,collection period 6-24 h,2.10 mmol/kg
same,Sodium excretion,collection period 6-24 h,4.10 mmol/kg
same,Urine volume,collection period 6-24 h,31.03 mL/kg
same,Natriuresis / sodium excretion (result in words),"rats with carbon tetrachloride-induced hepatic fibrosis, versus control run in the same animals","marked, statistically significant natriuresis"
